Values quoted from earlier work, collected in patent US6537592B2, “Extracts of kava-kava” (Kava Pharmaceuticals, Inc., priority 2000, dated 2003).

Details: at 21° C., water

Structure (SMILES): COC1=CC(=O)O[C@@H](/C=C/c2ccccc2)C1 [kawain]
- maximum solubility: about 2.2 mg/100 ml water
